From patent US10624949B1, “Methods for treating diseases related to the wnt pathway” (priority 2015, dated 2020)
“Also recorded” adds a separate entry of the source.

Key:
[1] = tested on: RVFV MP12-induced β-catenin transcriptional activity; type: cell-based, human
[2] = tested on: Wnt3A-induced β-catenin luc reporter expression; type: cell-based, human
RVFV MP12-GFP [3] = assay: microbe, parasite or virus in culture; type: cell-based, Rift Valley fever virus; conditions: for inhibition at 10 µM: Rift Valley fever virus, Hepatocyte, read-out: inhibition of RVFV MP12-GFP infection
RVFV MP12-GFP [4] = type: cell-based, Rift Valley fever virus
VSV [5] = type: cell-based, Vesicular Stomatitis virus
VacV = type: cell-based, Vaccinia virus
[6] = tested on: cellular models of cancer survival; conditions: preclinical studies; cited from earlier work
CEV = type: cell-based, California encephalitis virus
LCV = type: cell-based, La Crosse virus
RVFV MP12 = type: cell-based, Rift Valley fever virus
wild-type RVFV = type: cell-based, Rift Valley fever virus
[7] = tested on: wild-type RVFV strain ZH-501; type: cell-based, Rift Valley fever virus
VSV [8] = type: cell-based, Vesicular Stomatitis virus; remark: listed apart in the source
RVFV MP12-GFP [9] = type: cell-based, Rift Valley fever virus; remark: listed apart in the source

Molecule	RVFV MP12-induced β-catenin reporter activity [1]	Wnt3A-induced β-catenin luc reporter activity [2]	RVFV MP12-GFP infection, inhibitor 1 hour prior to and during initial infection, removed after 3 hours (pre-treat) (RVFV MP12-GFP [4])	RVFV MP12-GFP infection, inhibitor added 1 hpi (post-treat) (RVFV MP12-GFP [4])	infection of RVFV MP12-GFP (relative percent infection) (RVFV MP12-GFP [3])	infection of VSV (relative percent infection) (VSV [5])	infection of VacV (relative percent infection) (VacV)	further results
CO/C1=C\C(C)=C\[C@@H](C)[C@@H](O)[C@@H](C)C/C(C)=C/C=C/[C@H](OC)[C@@H]([C@@H](C)[C@@H](O)[C@H](C)[C@@]2(O)C[C@@H](O)[C@H](C)[C@@H](C(C)C)O2)OC1=O [BAF]	blocked	–	–	–	–	–	–	–
O=C(Nc1cccc2cccnc12)c1ccc(N2C(=O)[C@@H]3[C@H](C2=O)[C@@H]2C=C[C@H]3C2)cc1 [Endo-IWR-1, 4-[(3aR,4S,7R,7aS)-1,3-dioxo-1,3,3a,4,7,7a-hexahydro-2H-4,7-methanoisoindol-2-yl]-N-(quinolin-8-yl)benzamide]	inhibited	inhibited	little to no effect	significantly inhibit	–	–	–	inhibition at 10 µM (RVFV MP12-GFP [3]): > 50%
Cc1cc([N+](=O)[O-])ccc1NS(=O)(=O)c1cc(Cl)ccc1Cl [FH535, 2,5-dichloro-N-(2-methyl-4-nitrophenyl)benzenesulfonamide]	inhibited	inhibited	little to no effect	significantly inhibit	reduced	did not diminish	did not diminish	–
COc1ccc(C2(CNC(=O)c3ccc(NC(=O)c4ccco4)cc3)CCOCC2)cc1 [JW55, N-[4-[[4-(4-methoxyphenyl)oxan-4-yl]methylcarbamoyl]phenyl]furan-2-carboxamide]	–	–	–	–	–	–	–	efficacy in cellular models of cancer survival [6]: demonstrated efficacy
O=C1Nc2ccccc2C12OCC1(CO2)COC2(OC1)C(=O)Nc1ccccc12 (stereo not drawn) [JW67, trispiro[3H-indole-3,2′-[1,3]dioxane-5′,5″-[1,3]dioxane-2″,3′″-[3H]indole]-2,2′″(1H,1′″H)-dione]	inhibited	inhibited	little to no effect	significantly inhibit	–	none of the inhibitors that stabilized the DC affected	none of the inhibitors that stabilized the DC affected	CEV infection / viral titers by plaque assay (CEV): significantly reduced; inhibition at 10 µM (RVFV MP12-GFP [3]): > 50%; LCV infection / viral titers by plaque assay (LCV): significantly reduced; RVFV MP12 viral titers by plaque assay (RVFV MP12): significant decrease; wild-type RVFV viral titers by plaque assay (wild-type RVFV): significant decrease; also recorded: significantly reduced
CN(C)c1ccc(/C=C/c2c(F)cccc2F)cc1 [Wnt XII, (E)-4-(2,6-difluorostyryl)-N,N-dimethylaniline]	inhibited	inhibited	little to no effect	significantly inhibit	reduced	did not diminish	did not diminish	–
O=c1nc(-c2ccc(C(F)(F)F)cc2)[nH]c2c1CSCC2 [XAV939, 2-[4-(trifluoromethyl)phenyl]-1,5,7,8-tetrahydrothiopyrano[4,3-d]pyrimidin-4-one]	–	–	–	–	–	–	–	efficacy in cellular models of cancer survival [6]: demonstrated efficacy
Cc1cc(/C=C2\SC(=O)N(c3ccccc3)C2=O)c(C)n1-c1cccnc1 [iCRT-14, (5Z)-5-[(2,5-dimethyl-1-pyridin-3-ylpyrrol-3-yl)methylidene]-3-phenyl-1,3-thiazolidine-2,4-dione]	inhibited	inhibited	little to no effect	significantly inhibit	reduced	did not diminish	did not diminish	RVFV MP12 viral titers by plaque assay (RVFV MP12): significant decrease; wild-type RVFV viral titers by plaque assay (wild-type RVFV): significant decrease
WIF-1	no effect	dose-dependent reduction	no effect	no effect	unable to reduce infection	unable to reduce infection	unable to reduce infection	–
Wnt3A (protein, UniProt P56704 19-352, looked up) Protein Wnt-3a: SYPIWWSLAVGPQYSSLGSQPILCASIPGLVPKQLRFCRNYVEIMPSVAEGIKIGIQECQHQFRGRRWNCTTVHDSLAIFGPVLDKATRESAFVHAIASAGVAFAVTRSCAEGTAAICGCSSRHQGSPGKGWKWGGCSEDIEFGGMVSREFADARENRPDARSAMNRHNNEAGRQAIASHMHLKCKCHGLSGSCEVKTCWWSQPDFRAIGDFLKDKYDSASEMVVEKHRESRGWVETLRPRYTYFKVPTERDLVYYEASPNFCEPNPETGSFGTRDRTCNVSSHGIDGCDLLCCGRGHNARAERRREKCRCVFHWCCYVSCQECTRVYDVHTCK	–	–	–	–	–	–	–	wild-type RVFV infection (number of plaques) [7]: enhanced; VSV infection after Wnt3A pre-treatment (VSV [8]): remained unchanged; RVFV MP12-GFP viral infection after Wnt3A pre-treatment (RVFV MP12-GFP [9]): significantly enhanced; increase in RVFV MP12-GFP infection (RVFV MP12-GFP [9]): greater than 4.5 fold
DKK-1 (protein, UniProt O94907 32-266, looked up) Dickkopf-related protein 1: TLNSVLNSNAIKNLPPPLGGAAGHPGSAVSAAPGILYPGGNKYQTIDNYQPYPCAEDEECGTDEYCASPTRGGDAGVQICLACRKRRKRCMRHAMCCPGNYCKNGICVSSDQNHFRGEIEETITESFGNDHSTLDGYSRRTTLSSKMYHTKGQEGSVCLRSSDCASGLCCARHFWSKICKPVLKEGQVCTKHRRKGSHGLEIFQRCYCGEGLSCRIQKDHHQASNSSRLHTCQRH	no effect	dose-dependent reduction	no effect	no effect	unable to reduce infection	unable to reduce infection	unable to reduce infection	–
